Assays:
Assay in all cases: fluorescence (Cy3/DABCYL) titration, two-site fit
Conditions in all cases: 6 mM Mg2+; 10 mM Tris-HCl pH 7.5, 25 °C; 250 nM aptamer; apparent; ATP up to 6.75 mM
[1] = test system: 9_23 (DNA, aptamer) CACCTGGGGGAGTATTGCGGAGGAAGGTTTTTCCCCAGGTG
[2] = test system: 6_25 (DNA, aptamer) CACCTGGGGGAGTATTGCGGAGGAAGGTTTTCAGGTG
[3] = test system: 9_43 (DNA, aptamer) CACCTGGGGGAGTATTGCGGAGGAAGGTTTTTTTTTTTTTTTTTTTTTTTTTCCCCAGGTG
[4] = test system: 8_43 (DNA, aptamer) CACCTGGGGGAGTATTGCGGAGGAAGGTTTTTTTTTTTTTTTTTTTTTTTTCCCAGGTG
[5] = test system: 9_33 (DNA, aptamer) CACCTGGGGGAGTATTGCGGAGGAAGGTTTTTTTTTTTTTTTCCCCAGGTG
[6] = test system: 7_23 (DNA, aptamer) CACCTGGGGGAGTATTGCGGAGGAAGGTTTCCAGGTG
[7] = test system: 6_23 (DNA, aptamer) CACCTGGGGGAGTATTGCGGAGGAAGGTTCAGGTG
[8] = test system: 8_36 (DNA, aptamer) CACCTGGGGGAGTATTGCGGAGGAAGGTTTTTTTTTTTTTTTTTCCCAGGTG
[9] = test system: 6_36 (DNA, aptamer) CACCTGGGGGAGTATTGCGGAGGAAGGTTTTTTTTTTTTTTTCAGGTG
[10] = test system: 7_43 (DNA, aptamer) CACCTGGGGGAGTATTGCGGAGGAAGGTTTTTTTTTTTTTTTTTTTTTTTCCAGGTG
[11] = test system: 7_33 (DNA, aptamer) CACCTGGGGGAGTATTGCGGAGGAAGGTTTTTTTTTTTTTCCAGGTG
[12] = test system: 8_23 (DNA, aptamer) CACCTGGGGGAGTATTGCGGAGGAAGGTTTTCCCAGGTG
[13] = test system: 7_36 (DNA, aptamer) CACCTGGGGGAGTATTGCGGAGGAAGGTTTTTTTTTTTTTTTTCCAGGTG
[14] = test system: 9_36 (DNA, aptamer) CACCTGGGGGAGTATTGCGGAGGAAGGTTTTTTTTTTTTTTTTTTCCCCAGGTG
[15] = test system: 8_33 (DNA, aptamer) CACCTGGGGGAGTATTGCGGAGGAAGGTTTTTTTTTTTTTTCCCAGGTG
[16] = test system: 9_25 (DNA, aptamer) CACCTGGGGGAGTATTGCGGAGGAAGGTTTTTTTCCCCAGGTG
[17] = test system: 7_25 (DNA, aptamer) CACCTGGGGGAGTATTGCGGAGGAAGGTTTTTCCAGGTG
[18] = test system: 8_25 (DNA, aptamer) CACCTGGGGGAGTATTGCGGAGGAAGGTTTTTTCCCAGGTG
[19] = test system: 6_33 (DNA, aptamer) CACCTGGGGGAGTATTGCGGAGGAAGGTTTTTTTTTTTTCAGGTG

Nc1ncnc2c1ncn2[C@@H]1O[C@H](COP(=O)(O)OP(=O)(O)OP(=O)(O)O)[C@@H](O)[C@H]1O was tested, and the KDeff [1] was 39.0 ± 35.7 mM, the KDeff [2] was 0.0262 ± 0.0095 mM and the KDeff [3] was 0.967 ± 0.085 mM. The KDeff [4] was 0.388 ± 0.124 mM, the KDeff [5] was 4.98 ± 0.53 mM and the KDeff [6] was 0.382 ± 0.034 mM. For the same molecule, the KDeff [7] was 0.0314 ± 0.0111 mM, the KDeff [8] was 0.352 ± 0.043 mM and the KDeff [9] was 0.0107 ± 0.0019 mM. The KDeff [10] was 0.0298 ± 0.0031 mM, the KDeff [11] was 0.0985 ± 0.0481 mM and the KDeff [12] was 3.58 ± 1.37 mM. It also gave a KDeff [13] of 0.0709 ± 0.0018 mM, a KDeff [14] of 2.72 ± 1.47 mM and a KDeff [15] of 0.734 ± 0.01 mM. For the same molecule, the KDeff [16] was 12.8 ± 1.7 mM, the KDeff [17] was 0.271 ± 0.038 mM and the KDeff [18] was 2.29 ± 0.05 mM. The KDeff [19] was 0.0182 ± 0.0076 mM.
